Patent US6703400B2, “Methods for treating multidrug resistance” (Schering Corporation, priority 2001, dated 2004)
Like-named read-outs stand apart in the source and are kept apart here. Values belong to the compound of their own block, whether it stands above or below them.

Key:
[1] = molecular target: MDR1 gene product transport enzyme (P-gp) in CR1R12 cell membranes (Cricetulus griseus, UniProt P21448); experiment: P-gp-mediated ATP hydrolysis (phosphate release) assay with CR1R12 membrane microsomes; format: biochemical, rodent
Text: ATP hydrolysis as nmol/min/mg is plotted against SCH66336 concentration.
The second Example monitored the consumption of ATP, a high-energy biological energy source required for transporter enzyme function. ATP is converted to two other chemicals—ADP and inorganic phosphate—during the P-gp mediated transport porcess.
The method was modified to be carried out in a 96-well microplate.
CR1R12 cell membranes enriched with the MDR1 gene product transport enzyme were used for preparation of membrane microsomes. Cells were washed with complete Hanks' buffer before being resuspended in 10 ml lysis buffer (Tris-25 HCl, 50 mM; mannitol, 50 mM; EGTA, 2 mM; and dithiothreitol, 2 mM; pH 7.0 at 25° C.) containing protease inhibitors (phenylmethylsulfonyl fluoride, 1 mM; aprotinin, 10 μg/ml; leupeptin, 10 μg/ml). All subsequent steps were performed at 4° C. The cells were lysed by nitrogen cavitation (Parr Instrument Co., Moline, Ill.) at 500 psi for 15 min twice. Nuclei and mitochondria were sedimented by centrifugation at 4000×g for 10 min. The microsomal membrane fraction was then sedimented by centrifugation at 100,000×g for 60 min. […] Aliquots of membrane microsomes were rapidly frozen and stored at −80 ° C. until analysis.
The microsomes were thawed on ice prior to diluting to 3.5 μg protein per well in ice-cold ATPase buffer (sodium ATP, 3 mM; KCl, 50 mM; MgSO4, 10 mM; dithiothreitol, 3 mM; Tris-HCl, 50 mM; pH 7.0) containing 0.5 mM EGTA (to inhibit Ca-ATPase), 0.5 mM ouabain (to inhibit the Na/K-ATPase), and 3 mM sodium azide (to inhibit the mitochondrial ATPase). The total incubation volume including the various inhibitors was 100 μl. The incubation reaction was initiated by transferring the plate from ice to 37° C. and incubating for 30 min; the reaction was terminated by the addition of 50 μl 12% SDS solution at room temperature, followed by the addition of 50 μl of a mixture solution of (equal volumes) 18% fresh ascorbic acid in 1N HCl and 3% ammonium molybdate in 1 N HCl. After 4 min, 100 μl of a solution of 2% sodium citrate and 2% sodium meta-arsenite in 2% acetic acid was added to fix the color formation. […] The respective values for background with ATPase assay buffer alone were obtained in parallel and subtracted from the values for experimental samples.

[2] = molecular target: T1, P-gp efflux pump in CR1R12 cells (Cricetulus griseus, UniProt P21448); details: compared with verapamil
Description: (§1) The efflux phase or incubation was 30 min in all cases. The average number of cells per assay was 10,000. The function for the line through the data is the Hill equation: v=VmaxSn/(K′+Sn). The parameters IC50 and the Hill coefficient along with the standard deviation are shown on the respective graphs.
(§2) CR1R12 cell line, provided by Dr. Alan Senior (Univ. of Rochester), was maintained in complete α-minimum essential medium (α-MEM) supplemented with 10% FBS, penicillin/streptomycin (50 units/50 μg/ml) in a 5% CO2-95% air atmosphere at 37° C. Colchicine (0.5 μg/ml) was added to the culture medium. Cells were grown to 80-90% confluency and treated with trypsin-EDTA before subculturing.
(§3) Fluorescence measurements of individual cells were performed using a Becton-Dickinson FACScalibur fluorescence-activated cell sorter (San Jose, Calif.), equipped with an ultraviolet argon laser (excitation at 488 nm, emission at 530/30 and 570/30 nm band-pass filters). […]
(§4) Cell viability was assessed using exclusion of 0.4% trypan blue as well as propidium iodide staining. Dead cells in which propidium iodide was bound to double strands of DNA or RNA were detected in certain regions of the cytometry dot plots and not included in the final data calculations.
(§5) The DNR fluorescence intensity of individual cells was recorded as histograms. […]

[3] = molecular target: T2, gene product of human MDR1 (P-gp) in NIH 3T3 G185 cells (Homo sapiens, UniProt P08183); details: IC50 G185 vs IC50 CR1R12
Description: (§6) The efflux phase or incubation was 30 min in all cases. The average number of cells per assay was 10,000.
(§7) CR1R12 cell line, provided by Dr. Alan Senior (Univ. of Rochester), was maintained in complete α-minimum essential medium (α-MEM) supplemented with 10% FBS, penicillin/streptomycin (50 units/50 μg/ml) in a 5% CO2-95% air atmosphere at 37° C. Colchicine (0.5 μg/ml) was added to the culture medium. Cells were grown to 80-90% confluency and treated with trypsin-EDTA before subculturing. The NIH 3T3 G185 cell line presenting the gene product of human MDR1 was licensed from NIH and maintained in DMEM.
(§8) Fluorescence measurements of individual cells were performed using a Becton-Dickinson FACScalibur fluorescence-activated cell sorter (San Jose, Calif.), equipped with an ultraviolet argon laser (excitation at 488 nm, emission at 530/30 and 570/30 nm band-pass filters). Analysis was gated to include single cells on the basis of forward and side light-scatter and was based on acquisition of data from 10,000 cells. […] A direct functional assay for the P-gp efflux pump in CR1R12 cells was performed with the flow cytometer (Wang et al., 2000).
as §4
(§9) The DNR fluorescence intensity of individual cells was recorded as histograms. The mean fluorescence intensity of 10,000 cells was used for comparison among different conditions. Vanadate was selected as a positive control to normalize the measurements because it can maximally inactivate the P-gp efflux pump. Relative fluorescence was used for quantitation and comparison among different compounds. The relative fluorescence (% inactivation) represents a ratio obtained through the following formula: the geometric mean fluorescence of a discrete sample divided by the geometric mean fluorescence in the presence of 5 mM vanadate, times 100, or expressed as [formula]

[4] = molecular target: T1, P-gp efflux pump in CR1R12 cells; experiment: cell-based
Description: as §1, §2, §3, §4, §5

P-gp = P-gp (Cricetulus griseus, UniProt P21448); experiment: Retention of rhodamine 123 (Rho), fluorescent P-gp substrate, in cells
Description: as §8, §9

[5] = molecular target: T2, gene product of human MDR1 (P-gp) in NIH 3T3 G185 cells; experiment: cell-based
Description: as §6, §7, §8, §4, §9

P-gp (human MDR1) = P-gp (human MDR1) (Homo sapiens, UniProt P08183); experiment: in vitro
Chain of P-gp (human MDR1) (P08183 whole entry): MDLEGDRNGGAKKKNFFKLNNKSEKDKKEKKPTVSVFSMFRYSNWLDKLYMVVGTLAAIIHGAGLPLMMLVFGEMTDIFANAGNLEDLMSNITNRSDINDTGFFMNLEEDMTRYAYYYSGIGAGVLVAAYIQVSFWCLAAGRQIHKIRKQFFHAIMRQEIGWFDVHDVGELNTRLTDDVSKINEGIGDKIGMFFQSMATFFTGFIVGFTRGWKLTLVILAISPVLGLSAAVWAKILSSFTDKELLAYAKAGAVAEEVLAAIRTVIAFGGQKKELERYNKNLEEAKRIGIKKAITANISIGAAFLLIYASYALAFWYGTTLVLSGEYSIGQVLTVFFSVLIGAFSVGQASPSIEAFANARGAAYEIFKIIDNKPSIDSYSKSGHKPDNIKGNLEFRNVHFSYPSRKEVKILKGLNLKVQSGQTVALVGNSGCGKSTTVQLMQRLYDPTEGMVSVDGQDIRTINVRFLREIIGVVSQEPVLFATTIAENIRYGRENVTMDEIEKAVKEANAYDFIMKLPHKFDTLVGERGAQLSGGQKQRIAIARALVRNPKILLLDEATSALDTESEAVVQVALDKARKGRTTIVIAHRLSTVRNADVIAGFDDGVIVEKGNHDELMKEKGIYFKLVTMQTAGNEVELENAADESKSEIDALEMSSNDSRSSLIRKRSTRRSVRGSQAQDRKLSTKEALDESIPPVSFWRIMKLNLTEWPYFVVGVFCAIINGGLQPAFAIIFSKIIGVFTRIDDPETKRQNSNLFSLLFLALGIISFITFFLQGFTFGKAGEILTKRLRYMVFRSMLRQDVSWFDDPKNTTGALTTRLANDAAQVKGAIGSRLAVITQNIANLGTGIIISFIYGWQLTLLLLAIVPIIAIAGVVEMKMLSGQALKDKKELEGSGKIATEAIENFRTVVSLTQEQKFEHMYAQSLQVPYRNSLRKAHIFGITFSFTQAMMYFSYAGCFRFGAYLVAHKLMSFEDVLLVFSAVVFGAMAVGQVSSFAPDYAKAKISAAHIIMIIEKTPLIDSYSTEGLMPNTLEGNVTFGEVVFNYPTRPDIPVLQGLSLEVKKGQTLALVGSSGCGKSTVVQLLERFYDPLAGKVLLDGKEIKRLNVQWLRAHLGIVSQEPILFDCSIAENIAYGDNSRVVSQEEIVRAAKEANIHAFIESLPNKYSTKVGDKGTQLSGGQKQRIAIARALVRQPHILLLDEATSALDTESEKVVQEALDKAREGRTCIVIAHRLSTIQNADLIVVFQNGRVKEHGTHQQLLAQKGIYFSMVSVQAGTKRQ
Description: as §6, §7, §8, §4, §9

Chain of MDR1 gene product transport enzyme (P-gp) in CR1R12 cell membranes (P21448 whole entry): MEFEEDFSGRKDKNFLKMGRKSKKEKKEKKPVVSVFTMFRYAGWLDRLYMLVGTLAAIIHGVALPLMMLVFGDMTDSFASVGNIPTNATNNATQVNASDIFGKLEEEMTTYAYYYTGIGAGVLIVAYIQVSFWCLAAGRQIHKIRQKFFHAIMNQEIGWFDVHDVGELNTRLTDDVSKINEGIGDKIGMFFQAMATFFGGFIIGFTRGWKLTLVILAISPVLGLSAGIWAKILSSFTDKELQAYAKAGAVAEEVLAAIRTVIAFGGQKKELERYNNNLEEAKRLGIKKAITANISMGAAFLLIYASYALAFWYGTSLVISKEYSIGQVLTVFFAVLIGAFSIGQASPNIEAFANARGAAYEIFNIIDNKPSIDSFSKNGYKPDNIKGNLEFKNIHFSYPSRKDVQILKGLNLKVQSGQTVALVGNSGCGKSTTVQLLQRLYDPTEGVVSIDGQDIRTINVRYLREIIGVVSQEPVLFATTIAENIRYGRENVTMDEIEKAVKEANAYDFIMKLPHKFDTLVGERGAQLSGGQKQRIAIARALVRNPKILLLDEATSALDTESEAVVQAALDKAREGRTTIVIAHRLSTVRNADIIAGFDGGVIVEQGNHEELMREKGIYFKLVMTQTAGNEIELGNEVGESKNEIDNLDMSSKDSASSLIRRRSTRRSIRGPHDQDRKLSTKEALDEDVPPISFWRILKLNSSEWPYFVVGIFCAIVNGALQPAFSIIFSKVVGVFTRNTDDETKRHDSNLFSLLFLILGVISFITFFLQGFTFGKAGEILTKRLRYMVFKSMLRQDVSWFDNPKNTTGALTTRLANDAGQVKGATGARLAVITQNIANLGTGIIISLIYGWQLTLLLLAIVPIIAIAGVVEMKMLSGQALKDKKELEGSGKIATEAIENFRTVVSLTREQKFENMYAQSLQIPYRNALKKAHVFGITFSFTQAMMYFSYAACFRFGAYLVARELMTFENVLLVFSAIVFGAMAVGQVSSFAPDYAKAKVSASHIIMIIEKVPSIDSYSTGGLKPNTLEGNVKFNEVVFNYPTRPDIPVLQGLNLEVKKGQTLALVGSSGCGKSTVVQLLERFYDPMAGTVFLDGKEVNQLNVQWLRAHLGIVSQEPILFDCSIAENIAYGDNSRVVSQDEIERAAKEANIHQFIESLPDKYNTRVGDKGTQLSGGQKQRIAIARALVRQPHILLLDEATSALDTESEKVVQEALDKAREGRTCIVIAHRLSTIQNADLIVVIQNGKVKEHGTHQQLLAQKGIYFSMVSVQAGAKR
T2 sequence (P08183 whole entry): as the sequence (P08183 whole entry) above
T1 sequence (P21448 whole entry): as the sequence (P21448 whole entry) above

Compound: COc1cccc2c1C(=O)c1c(O)c3c(c(O)c1C2=O)C[C@@](O)(C(C)=O)C[C@@H]3O[C@H]1C[C@H](N)[C@H](O)[C@H](C)O1 [Daunorubicin, reference compound]
- Vmax % control ([1]; ATP hydrolysis, Table 1): 170 % control

- Vmax % control ([1]; ATP hydrolysis, Table 1): 236 % control
Compound: CC(=O)[C@H]1CC[C@H]2[C@@H]3CCC4=CC(=O)CC[C@]4(C)[C@H]3CC[C@]12C [Progesterone, reference compound]

Compound: C=C[C@H]1C[N@@]2CC[C@H]1C[C@@H]2[C@@H](O)c1ccnc2ccc(OC)cc12 [Quinidine, quinidine, reference compound]
- Vmax % control [1]: 239 % control

Compound: NC(=O)N1CCC(CC(=O)N2CCC(C3c4ncc(Br)cc4CCc4cc(Cl)cc(Br)c43)CC2)CC1 (stereo not drawn) [SCH66336]
- extent of inhibition of DNR transport [2]: exceeding that of verapamil
- potency in G185 cells relative to CR1R12 cell line [3]: three times as potent
- IC50 [4]: ~9 µM
- effect on rate of ATP hydrolysis relative to baseline rate [1]: concentration-dependent decrease
- Vmax ([1]; ATP hydrolysis, Example B results text): ~28 % baseline
- Vmax ([1]; ATP hydrolysis, FIG. 2 legend): 28 % of control
- IC50 (P-gp): ~11 µM
- IC50 [5]: ~3 µM
- IC50 at 30 min (P-gp (human MDR1)): < 3 µM
